Assay results as given in ChEMBL document CHEMBL5528042, “Identification of Novel, Selective Ataxia-Telangiectasia Mutated Kinase Inhibitors with the Ability to Penetrate the Blood-Brain Barrier: The Discovery of AZD1390” (J Med Chem, 2024).
≈ marks a conversion by molar mass, not a printed value.

How the values were obtained:
[1] = Lipophilicity, logD of the compound at pH 7.4; type: physicochemical; settings: buffer
[2] = Unbound brain to plasma drug concentration ratio in mouse at 50 mg/kg,po administration and measured after 2 hrs; type: ADME, organism-based; settings: read-out: K(p,uu,brain)
[3] = target: Serine-protein kinase ATM (Homo sapiens, UniProt Q13315); experiment: Inhibition of ATM in human HT-29 cells incubated for 2 hrs by Alexa Fluor 488/Hoeschst staining based plate reader assay; type: cell-based
MDR1, BCRP [4] = experiment: Efflux ratio of apparent permeability across basolateral to apical side over apical to basolateral side in dog MDCKII-MDR1 cells overexpressing BCRP at 1 uM incubated for 90 mins by LC-MS/MS analysis; type: ADME, cell-based, Canis lupus familiaris, MDCK-MDR1
[5] = Aqueous solubility of the compound in pH 7.4; type: physicochemical; settings: buffer
MDR1, BCRP [6] = experiment: Efflux ratio of apparent permeability across basolateral to apical side over apical to basolateral side in dog MDCKII-MDR1 cells overexpressing BCRP at 0.1 uM incubated for 90 mins by LC-MS/MS analysis; type: ADME, cell-based, Canis lupus familiaris, MDCK-MDR1
[7] = target: Serine/threonine-protein kinase ATR (Homo sapiens, UniProt Q13535); experiment: Inhibition of ATR in human HT-29 cells incubated for 2 hrs by Alexa Fluor 488/Hoeschst staining based plate reader assay; type: cell-based
[8] = Apparent permeability across apical to basolateral side in dog MDCKII-MDR1 cells overexpressing BCRP at 0.1 uM incubated for 90 mins by LC-MS/MS analysis; type: ADME, cell-based, Canis lupus familiaris, MDCK-MDR1
[9] = Apparent permeability across apical to basolateral side in dog MDCKII-MDR1 cells overexpressing BCRP at 1 uM incubated for 90 mins by LC-MS/MS analysis; type: ADME, cell-based, Canis lupus familiaris, MDCK-MDR1
[10] = Intrinsic clearance in human hepatocyte assessed per 10^6 cells; type: ADME, cell-based; settings: hepatocytes, read-out: CLH
[11] = Intrinsic clearance in rat hepatocyte assessed per 10^6 cells; type: ADME, cell-based; settings: hepatocytes, read-out: CLH
[12] = Tmax in Cynomolgus monkey at iv administered as bolus injection measured at 4 to 90 mins by gamma counter analysis; type: ADME, organism-based, Macaca fascicularis; settings: in vivo, time 4-90 min
[13] = Dissociation constant, pKa of compound; type: physicochemical
[14] = target: Phosphatidylinositol 4,5-bisphosphate 3-kinase catalytic subunit alpha isoform (Homo sapiens, UniProt P42336); experiment: Inhibition of PI3Kalpha in human BT-474 cells incubated for 140 mins by ELISA; type: cell-based
[15] = Bioavailability in rat at 1 mg/kg,po or 0.5 mg/kg,iv administration measured for 24 hrs by LC-MS/MS analysis; type: ADME, organism-based; settings: in vivo
[16] = Plasma protein binding in dog assessed as unbound fraction incubated for 16 hrs by equilibrium dialysis based UPLC-MS/MS analysis; type: ADME, cell-free, Canis lupus familiaris
[17] = Half life in dog at 2 mg/kg,po or 1 mg/kg,iv administration measured for 24 hrs by LC-MS/MS analysis; type: ADME, organism-based, Canis lupus familiaris; settings: in vivo
[18] = Volume of distribution at steady state in dog at 2 mg/kg,po or 1 mg/kg,iv administration measured for 24 hrs by LC-MS/MS analysis; type: ADME, organism-based, Canis lupus familiaris; settings: in vivo
[19] = Intrinsic clearance in dog hepatocyte assessed per 10^6 cells; type: ADME, cell-based, Canis lupus familiaris; settings: hepatocytes, read-out: CLH
[20] = Plasma protein binding in human assessed as unbound fraction incubated for 16 hrs by equilibrium dialysis based UPLC-MS/MS analysis; type: ADME, cell-free
[21] = Volume of distribution at steady state in rat at 1 mg/kg,po or 0.5 mg/kg,iv administration measured for 24 hrs by LC-MS/MS analysis; type: ADME, organism-based; settings: in vivo
[22] = target: Serine/threonine-protein kinase mTOR (Homo sapiens, UniProt P42345); experiment: Inhibition of mTOR in human MDA-MB-468 cells incubated for 2.5 hrs by Alexa Fluor 488 staining based fluorescence analysis; type: cell-based
[23] = Plasma protein binding in rat assessed as unbound fraction incubated for 16 hrs by equilibrium dialysis based UPLC-MS/MS analysis; type: ADME, cell-free
[24] = Half life in rat at 1 mg/kg,po or 0.5 mg/kg,iv administration measured for 24 hrs by LC-MS/MS analysis; type: ADME, organism-based; settings: in vivo
[25] = Bioavailability in dog at 2 mg/kg,po or 1 mg/kg,iv administration measured for 24 hrs by LC-MS/MS analysis; type: ADME, organism-based, Canis lupus familiaris; settings: in vivo
[26] = target: DNA-dependent protein kinase catalytic subunit (Homo sapiens, UniProt P78527); experiment: Inhibition of DNA-PK (unknown origin)
[27] = Intrinsic clearance in human liver microsomes; type: ADME, Microsome; settings: read-out: CLH
[28] = Unbound brain to plasma drug concentration ratio in Cynomolgus monkey at iv administered as bolus injection measured at 4 to 90 mins by PET analysis; type: ADME, organism-based, Macaca fascicularis; settings: time 4-90 min, read-out: K(p,uu,brain)
[29] = Unbound fraction in Cynomolgus monkey brain at iv administered as bolus injection measured at 4 to 90 mins by PET analysis; type: ADME, organism-based, Macaca fascicularis; settings: time 4-90 min
[30] = Unbound fraction in Cynomolgus monkey plasma at iv administered as bolus injection measured at 4 to 90 mins by PET analysis; type: ADME, organism-based, Macaca fascicularis; settings: time 4-90 min

Serine/threonine-protein kinase ATR, sequence (Q13535 whole entry): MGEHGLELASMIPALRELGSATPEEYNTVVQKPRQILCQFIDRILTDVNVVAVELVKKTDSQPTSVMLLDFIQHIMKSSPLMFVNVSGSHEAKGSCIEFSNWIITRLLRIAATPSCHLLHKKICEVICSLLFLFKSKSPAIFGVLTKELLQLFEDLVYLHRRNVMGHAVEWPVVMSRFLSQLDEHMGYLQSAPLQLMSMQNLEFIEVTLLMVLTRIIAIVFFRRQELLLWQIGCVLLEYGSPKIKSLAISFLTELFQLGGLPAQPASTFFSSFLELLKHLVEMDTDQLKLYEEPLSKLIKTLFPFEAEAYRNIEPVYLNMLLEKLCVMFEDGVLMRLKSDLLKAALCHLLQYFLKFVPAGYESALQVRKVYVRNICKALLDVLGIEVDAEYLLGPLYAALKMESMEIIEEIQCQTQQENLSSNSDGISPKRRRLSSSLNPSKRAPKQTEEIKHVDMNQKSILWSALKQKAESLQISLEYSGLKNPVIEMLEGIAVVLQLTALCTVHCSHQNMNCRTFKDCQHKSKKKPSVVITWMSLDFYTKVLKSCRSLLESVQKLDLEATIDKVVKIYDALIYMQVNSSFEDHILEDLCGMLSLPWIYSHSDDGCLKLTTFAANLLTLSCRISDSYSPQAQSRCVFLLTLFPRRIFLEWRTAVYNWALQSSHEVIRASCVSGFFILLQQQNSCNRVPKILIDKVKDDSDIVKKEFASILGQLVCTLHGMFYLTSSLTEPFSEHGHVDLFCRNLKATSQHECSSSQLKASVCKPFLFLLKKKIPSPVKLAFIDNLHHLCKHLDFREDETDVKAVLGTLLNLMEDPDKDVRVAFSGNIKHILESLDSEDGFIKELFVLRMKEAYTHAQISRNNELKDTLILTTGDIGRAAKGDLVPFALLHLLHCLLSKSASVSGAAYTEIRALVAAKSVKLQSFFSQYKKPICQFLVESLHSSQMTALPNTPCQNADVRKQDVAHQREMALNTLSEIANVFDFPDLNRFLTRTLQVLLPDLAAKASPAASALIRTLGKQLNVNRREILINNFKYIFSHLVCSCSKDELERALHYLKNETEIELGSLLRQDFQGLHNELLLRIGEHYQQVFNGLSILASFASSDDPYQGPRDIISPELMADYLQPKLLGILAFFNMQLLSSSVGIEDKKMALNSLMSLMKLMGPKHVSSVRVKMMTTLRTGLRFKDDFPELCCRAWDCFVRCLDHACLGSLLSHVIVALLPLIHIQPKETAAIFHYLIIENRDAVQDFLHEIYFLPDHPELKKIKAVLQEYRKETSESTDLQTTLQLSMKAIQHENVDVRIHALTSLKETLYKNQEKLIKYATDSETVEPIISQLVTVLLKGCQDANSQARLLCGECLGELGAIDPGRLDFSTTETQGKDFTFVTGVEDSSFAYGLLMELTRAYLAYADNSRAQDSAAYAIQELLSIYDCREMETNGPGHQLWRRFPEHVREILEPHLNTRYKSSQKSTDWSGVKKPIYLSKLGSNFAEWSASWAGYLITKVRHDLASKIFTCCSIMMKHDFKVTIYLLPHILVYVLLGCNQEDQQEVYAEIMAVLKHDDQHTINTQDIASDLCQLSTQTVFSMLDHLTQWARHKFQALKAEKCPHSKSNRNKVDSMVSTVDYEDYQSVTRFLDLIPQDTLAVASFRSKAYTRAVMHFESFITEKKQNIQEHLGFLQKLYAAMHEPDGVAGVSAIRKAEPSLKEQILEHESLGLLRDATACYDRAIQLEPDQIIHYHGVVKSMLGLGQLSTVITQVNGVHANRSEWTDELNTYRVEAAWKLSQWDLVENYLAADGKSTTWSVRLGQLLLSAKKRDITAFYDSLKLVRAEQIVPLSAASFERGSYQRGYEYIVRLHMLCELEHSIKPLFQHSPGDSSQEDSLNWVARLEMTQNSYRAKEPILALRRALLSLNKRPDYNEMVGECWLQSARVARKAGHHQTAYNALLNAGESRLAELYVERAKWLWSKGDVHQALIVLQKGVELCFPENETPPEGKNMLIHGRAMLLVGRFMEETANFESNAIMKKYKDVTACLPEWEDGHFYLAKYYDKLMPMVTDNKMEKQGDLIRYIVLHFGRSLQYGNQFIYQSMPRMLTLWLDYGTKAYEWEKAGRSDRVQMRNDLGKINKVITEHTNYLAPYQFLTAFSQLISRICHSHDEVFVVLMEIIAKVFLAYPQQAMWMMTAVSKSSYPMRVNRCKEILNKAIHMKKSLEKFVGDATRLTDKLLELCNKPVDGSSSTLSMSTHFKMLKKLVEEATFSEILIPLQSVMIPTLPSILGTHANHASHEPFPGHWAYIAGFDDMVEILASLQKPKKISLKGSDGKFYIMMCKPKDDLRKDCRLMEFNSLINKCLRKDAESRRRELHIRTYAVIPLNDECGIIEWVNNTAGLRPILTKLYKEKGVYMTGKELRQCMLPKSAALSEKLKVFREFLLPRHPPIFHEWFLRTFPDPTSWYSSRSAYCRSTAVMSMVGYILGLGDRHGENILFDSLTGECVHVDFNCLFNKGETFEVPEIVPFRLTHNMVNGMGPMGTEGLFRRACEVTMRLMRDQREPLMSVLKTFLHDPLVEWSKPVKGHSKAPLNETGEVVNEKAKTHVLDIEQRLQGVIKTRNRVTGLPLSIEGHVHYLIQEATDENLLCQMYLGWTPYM
Phosphatidylinositol 4,5-bisphosphate 3-kinase catalytic subunit alpha isoform, sequence (P42336 whole entry, canonical isoform): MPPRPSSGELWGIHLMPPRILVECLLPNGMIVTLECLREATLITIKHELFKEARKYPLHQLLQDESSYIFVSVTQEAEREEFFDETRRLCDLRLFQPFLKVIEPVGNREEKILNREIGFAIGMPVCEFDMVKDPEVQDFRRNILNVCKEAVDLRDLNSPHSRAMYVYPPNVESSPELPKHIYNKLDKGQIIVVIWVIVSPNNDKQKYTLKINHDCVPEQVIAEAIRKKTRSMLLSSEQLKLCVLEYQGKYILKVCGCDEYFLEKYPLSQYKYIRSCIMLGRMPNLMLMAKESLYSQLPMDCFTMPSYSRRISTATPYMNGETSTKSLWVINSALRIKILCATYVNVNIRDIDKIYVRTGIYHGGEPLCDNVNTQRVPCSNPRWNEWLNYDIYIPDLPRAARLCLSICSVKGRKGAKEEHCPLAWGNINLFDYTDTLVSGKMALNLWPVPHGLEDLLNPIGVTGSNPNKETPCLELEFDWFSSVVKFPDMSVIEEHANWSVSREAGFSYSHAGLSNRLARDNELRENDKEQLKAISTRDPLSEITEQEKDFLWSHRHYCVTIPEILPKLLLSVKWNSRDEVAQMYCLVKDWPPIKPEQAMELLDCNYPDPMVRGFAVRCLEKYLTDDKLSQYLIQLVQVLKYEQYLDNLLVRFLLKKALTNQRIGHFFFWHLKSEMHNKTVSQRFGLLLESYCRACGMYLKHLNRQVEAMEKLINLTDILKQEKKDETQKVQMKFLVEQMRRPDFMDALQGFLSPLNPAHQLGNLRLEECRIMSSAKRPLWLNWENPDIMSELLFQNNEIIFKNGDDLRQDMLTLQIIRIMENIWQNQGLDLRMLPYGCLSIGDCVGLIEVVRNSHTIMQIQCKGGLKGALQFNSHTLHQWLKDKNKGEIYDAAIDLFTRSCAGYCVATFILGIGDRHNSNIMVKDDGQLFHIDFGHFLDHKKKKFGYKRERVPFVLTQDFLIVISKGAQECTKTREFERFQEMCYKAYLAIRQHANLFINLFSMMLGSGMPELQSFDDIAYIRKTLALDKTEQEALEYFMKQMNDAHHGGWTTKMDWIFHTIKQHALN

Cn1c(=O)n(C2CCOCC2)c2c3cc(-c4cccnc4)ccc3ncc21
logD [1]: 2.2
Kp uu at 2 h [2]: 0.67

CC(C)n1c(=O)n(C)c2cnc3ccc(-c4ccc(OCCCN5CCCC5)nc4)cc3c21
IC50 [3]: 0.251 nM
efflux ratio at […], 1 µM (MDR1, BCRP [4]): 0.8
solubility [5]: 499 µM (≈ 222 µg/mL)
efflux ratio at […], 0.1 µM (MDR1, BCRP [6]): 2.6
IC50 [7]: > 31.6 µM
Papp A→B at […], 0.1 µM [8]: 24 ×10⁻⁶ cm/s
Papp A→B at […], 1 µM [9]: 25 ×10⁻⁶ cm/s
logD [1]: 2
hepatocyte CLint [10]: 2.6 µL/min/1e6 cells
hepatocyte CLint [11]: 1.8 µL/min/1e6 cells

CC(C)n1c(=O)n(C)c2cnc3ccc(-c4ccc(OCCCN(C)C)nc4)cc3c21
efflux ratio at […], 1 µM (MDR1, BCRP [4]): 2.1
solubility [5]: 480 µM (≈ 201 µg/mL)
efflux ratio at […], 0.1 µM (MDR1, BCRP [6]): 6.3
IC50 [7]: > 20 µM
Papp A→B at […], 0.1 µM [8]: 13 ×10⁻⁶ cm/s
Papp A→B at […], 1 µM [9]: 21 ×10⁻⁶ cm/s
logD [1]: 1.9
hepatocyte CLint [10]: 5.2 µL/min/1e6 cells
hepatocyte CLint [11]: 14 µL/min/1e6 cells

CN(C)CCCOc1ccc(-c2ccc3ncc4c(c3c2)n(C2CCOCC2)c(=O)n4[11CH3])cn1
Tmax [12]: 20 min

CC(C)n1c(=O)n(C)c2cnc3ccc(-c4ccc(N5CC[C@@H](N(C)C)C5)nc4)cc3c21
pKa [13]: 7.9
IC50 [14]: 0.316 µM
bioavailability [15]: 53%
solubility [5]: 22 µM (≈ 9.47 µg/mL)
fraction unbound at 16 h [16]: 0.26
half-life [17]: 96 min
Papp A→B at […], 1 µM [9]: 27 ×10⁻⁶ cm/s
Vdss [18]: 7.5 L/kg
logD [1]: 3
hepatocyte CLint [10]: 4.5 µL/min/1e6 cells
hepatocyte CLint [11]: 27 µL/min/1e6 cells
hepatocyte CLint [19]: 80 µL/min/1e6 cells
fraction unbound at 16 h [20]: 0.07
Vdss [21]: 0.6 L/kg
IC50 [22]: 3.16 µM
fraction unbound at 16 h [23]: 0.004
half-life [24]: 174 min

CC(C)n1c(=O)n(C)c2cnc3cc(F)c(-c4ccc(OCCCN(C)C)nc4)cc3c21
bioavailability [25]: 31%
IC50 [14]: 15.8 µM
bioavailability [15]: 48%
solubility [5]: 680 µM (≈ 298 µg/mL)
fraction unbound at 16 h [16]: 0.42
half-life [17]: 384 min
IC50 [7]: > 31.6 µM
Papp A→B at […], 0.1 µM [8]: 23 ×10⁻⁶ cm/s
Papp A→B at […], 1 µM [9]: 56 ×10⁻⁶ cm/s
Vdss [18]: 18 L/kg
logD [1]: 2.1
hepatocyte CLint [10]: 6.7 µL/min/1e6 cells
hepatocyte CLint [11]: 13 µL/min/1e6 cells
fraction unbound at 16 h [20]: 0.32
IC50 [26]: > 31.6 µM
Vdss [21]: 4.1 L/kg
IC50 [22]: > 31.6 µM
fraction unbound at 16 h [23]: 0.17
half-life [24]: 192 min

CC(C)n1c(=O)n(C)c2cnc3ccc(-c4ccc(OCCCN5CC[C@H](F)C5)nc4)cc3c21
pKa [13]: 8.1
solubility [5]: 43 µM (≈ 19.9 µg/mL)
IC50 [7]: > 20 µM
Papp A→B at […], 0.1 µM [8]: 19 ×10⁻⁶ cm/s
logD [1]: 3
hepatocyte CLint [10]: 7.2 µL/min/1e6 cells
hepatocyte CLint [11]: 20 µL/min/1e6 cells
microsomal CLint [27]: 65 µL/min/mg

CC(C)n1c(=O)n(C)c2cnc3ccc(-c4ccc(OCCCN5CCC(F)CC5)nc4)cc3c21
pKa [13]: 8.5
solubility [5]: 15 µM (≈ 7.16 µg/mL)
Papp A→B at […], 0.1 µM [8]: 14 ×10⁻⁶ cm/s
Papp A→B at […], 1 µM [9]: 13 ×10⁻⁶ cm/s
logD [1]: 3.3
hepatocyte CLint [10]: 8.5 µL/min/1e6 cells
hepatocyte CLint [11]: 29 µL/min/1e6 cells
microsomal CLint [27]: 100 µL/min/mg

CC(C)n1c(=O)n([11CH3])c2cnc3cc(F)c(-c4ccc(OCCCN(C)C)nc4)cc3c21
Kp uu [28]: 0.41
Tmax [12]: 4.5 min
fraction unbound [29]: 0.02
fraction unbound [30]: 0.195

CC(C)n1c(=O)n([11CH3])c2cnc3cc(F)c(-c4ccc(OCCCN5CCCCC5)nc4)cc3c21
Kp uu [28]: 0.33
Tmax [12]: 9.3 min
fraction unbound [29]: 0.01
fraction unbound [30]: 0.175

CC(C)n1c(=O)n(C)c2cnc3cc(F)c(-c4ccc(OCCCN5CCCCC5)nc4)cc3c21 [AZD-1390]
IC50 [3]: 0.794 nM
bioavailability [25]: 66%
IC50 [14]: > 12.6 µM
bioavailability [15]: 74%
solubility [5]: 693 µM (≈ 331 µg/mL)
fraction unbound at 16 h [16]: 0.25
IC50 [7]: > 31.6 µM
Papp A→B at […], 0.1 µM [8]: 17 ×10⁻⁶ cm/s
Papp A→B at […], 1 µM [9]: 24 ×10⁻⁶ cm/s
Vdss [18]: 24 L/kg
fraction unbound at 16 h [20]: 0.26
IC50 [26]: > 31.6 µM
Vdss [21]: 3 L/kg
IC50 [22]: > 15.8 µM
fraction unbound at 16 h [23]: 0.04
